Reference: US5677282A (Proscript, Inc., priority 1995, dated 1997)

Key:
[1] = tested on: bovine cartilage explants; experiment: Bovine cartilage explant assay (35S-GAG release, rhIL-1α stimulated); type: cell-based; details: 25 μM compound, rhIL-1α 5 ng/mL, 3-4 days culture
Excerpt: A tissue culture assay was used to measure the ability of the compounds of the present invention to slow the degradation of the extracellular matrix by metalloproteinases. This assay measured the amount of ^35 S-glycosaminoglycan (^35 S-GAG) released from labeled bovine cartilage explants.
Knee joints from a 1 to 3 week old calf were obtained immediately after sacrifice from the Abattoir and then transported on ice. The intact joints were washed well with tap water and soaked in 50% (v/v) Povidine iodine solution, obtained from Burre National, Inc., Baltimore, Md. All subsequent steps were performed in a laminar flow tissue culture hood using standard sterile technique. The joint was immobilized in a shank holder and the joint capsule was cut open to expose the articular cartilage. Cartilage explant plugs, approximately 15 mg wet weight, were removed from the flat articulating surfaces in the lower-most region of the knee joint using a sterile steel cork-borer and collected in a 250 mL roller bottle containing about 100 mL fresh Delbecco's minimum essential medium (DMEM), obtained from Gibco BRC, Life Technologies, Gaithersburg, Md., containing 4.5 g/l (D)-glucose and (L)-glutamine, without sodium pyruvate. The fresh media also contained enough Hepes buffer and sodium bicarbonate such that the pH was about 7.4. The media was then further supplemented just before use with 100 units Penicillin, 100 μg Streptomycin, and 50 μg (L)-ascorbic acid per mL of medium.
Once collected, the explant plugs were washed four times with 50 mL fresh DMEM. The plugs were then placed in the incubator for a minimum of 1 hour to equilibrate, before proceeding to make disks from the articulating surface of each plug. A 1 mm thick disk was sliced from individual plugs from the end that was the articulating surface of the joint. The plug was held steady in the sterile template (4 mm diameter×1.5 mm deep) using sterile forceps. A scalpel blade was used to carefully slice off the disk. Only the superficial articulating surface responded well in culture.
Individual disks obtained were transferred to a tissue culture flask containing about 100 mL fresh media. The flask containing the disks was placed in an incubator at 37° C. (with 5% CO2, 95% air) and allowed to equilibrate overnight and at least one additional day before labeling. When ready to label, the old media was replaced with 50 mL fresh media containing about 500 μCi ^35 S-Sodium Sulfate. The plugs were labeled in bulk for about 48 hours. The next morning, the "hot" media was removed and replaced with fresh "cold" media. The disks were again allowed to equilibrate overnight before being used for actual experiments.
The media in which the disks were stored was changed immediately prior to performing the assay. The disks were then returned to the incubator until the test media and the two control media had been prepared. The test media consisted of the desired concentration of a compound being tested for its ability to inhibit extracellular matrix degradation and concomitant recombinant human Interleukin rhIL-1α (5 ng/mL) in fresh DMEM solution. The control media were identical to the test media, except that the first control media lacked rhIL-1α and the second control media lacked the test compound. 250 μL of each of the test and control media were transferred to separate 96-well TC plates. Flamed forceps were used to transfer a disk from the incubator to each 96-well TC plates that had been filled with either the test media or one of the two control media.
The TC plates were then placed in the incubator and cultured for 3-4 days (initial incubation with rhIL-1α alpha takes at least 3 days to stimulate endogenous metalloproteinases). A 50 μL aliquot of media from each TC plate was saved and counted. The rest of the media was removed with a suction device.
The cartilage disks from each TC plate were also saved for counting. […]

stromelysin = stromelysin (Homo sapiens, UniProt P08254); experiment: Assay of stromelysin inhibition activity (fluorogenic coumarin peptide substrate); type: biochemical; details: trypsin-activated stromelysin 2 nM, H-150 buffer pH 7.4, room temperature; read-out: Ki(app)
Chain of stromelysin (P08254 100-477): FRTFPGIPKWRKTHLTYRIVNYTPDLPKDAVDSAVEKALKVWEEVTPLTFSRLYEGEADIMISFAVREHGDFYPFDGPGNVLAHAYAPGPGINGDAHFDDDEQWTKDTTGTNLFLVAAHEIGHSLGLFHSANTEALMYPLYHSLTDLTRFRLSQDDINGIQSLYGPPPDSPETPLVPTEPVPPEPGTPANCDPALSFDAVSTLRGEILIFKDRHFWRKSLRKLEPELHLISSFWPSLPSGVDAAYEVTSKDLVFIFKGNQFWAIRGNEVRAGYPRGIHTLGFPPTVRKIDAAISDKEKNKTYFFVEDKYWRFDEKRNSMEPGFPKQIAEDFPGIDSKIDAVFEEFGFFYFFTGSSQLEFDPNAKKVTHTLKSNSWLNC
Experimental: Stromelysin was first activated with trypsin. This was done by preparing a reaction mixture in H-150 (H-150 consists of 10 mM CaCl2, 150 mM NaCl and 100 mM HEPES at pH 7.4) containing a final concentration of 25 μg/mL trypsin and 2.2 μM of stromelysin (Marcy et al., Biochemistry,30:6476 (1991); Koklitis et al., Biochem. J., 376:217 (1991). The reaction was incubated for 30 minutes at 37° C. and then quenched by adding trypsin inhibitor agarose to the reaction mixture at a 20 fold excess with respect to trypsin.
The reaction mixture was centrifuged at 14,000 rpm (16,000 ×g) for 30 minutes using an Eppendorf Centrifuge 5415C. The supernant, which contains activated stromelysin, was concentrated with a Centricon 10 (5000 g, 1 hour). A sample was analyzed by Bradford total protein assay and 12% SDS polyacrylamide gel electrophoresis.
All steps of the stromelysin inhibition assay were performed at room temperature. Assay solutions were prepared for each inhibitor tested. Activated stromelysin was added to a stirred covelte to a final concentration of 2 nM in 2 mL of H-150 buffer. 4 μL 5 mM coumarin peptide substrate was dissolved in DMSO and the initial rate of hydrolysis was measured for 100-200 seconds.
Substrate hydrolysis was assessed by fluorescence using a slit width of 10:10, excitation at 328 nm and emission at 393 nm. Ki was calculated based on the assumption of simple competitive inhibition and a substrate concentration much less than Km. 2 μL of 10 mM inhibitor in DMSO was added and the reduction in hydrolysis rate measured. The addition of 2 μL of inhibitor was continued until a 30-70% inhibition was observed.

92 kD gelatinase = 92 kD gelatinase (Homo sapiens, UniProt P14780); experiment: Assay of 92 KD gelatinase inhibition activity; type: biochemical; details: 92KD gelatinase 25 pM, H-150 buffer pH 7.4; read-out: Ki(app)
Chain of 92 kD gelatinase (P14780 107-707): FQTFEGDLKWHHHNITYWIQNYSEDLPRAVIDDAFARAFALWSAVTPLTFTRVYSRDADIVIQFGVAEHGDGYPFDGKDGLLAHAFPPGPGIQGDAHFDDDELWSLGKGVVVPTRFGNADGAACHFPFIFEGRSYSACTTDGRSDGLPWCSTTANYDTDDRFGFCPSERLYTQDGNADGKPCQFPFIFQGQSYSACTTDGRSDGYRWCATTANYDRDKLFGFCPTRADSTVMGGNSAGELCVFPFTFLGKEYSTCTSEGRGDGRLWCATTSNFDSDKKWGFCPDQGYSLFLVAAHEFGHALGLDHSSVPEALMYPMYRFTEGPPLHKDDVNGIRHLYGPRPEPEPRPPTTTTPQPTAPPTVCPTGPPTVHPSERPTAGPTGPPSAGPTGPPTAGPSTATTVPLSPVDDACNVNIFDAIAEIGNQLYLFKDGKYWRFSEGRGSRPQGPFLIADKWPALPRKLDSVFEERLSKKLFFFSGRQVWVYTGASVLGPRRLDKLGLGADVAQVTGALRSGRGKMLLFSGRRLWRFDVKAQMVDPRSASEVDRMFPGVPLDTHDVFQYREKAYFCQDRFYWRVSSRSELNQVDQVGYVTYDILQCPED
Experimental: H-150 buffer, pH 7.4, was prepared by CaCl2 H2 O (1.47 grams), NaCl (8.77 grams) and N-[2-hydroxyethyl]piperazine-N'-[2-ethanesulfonic acid](23.83 grams) to distilled and deionized water and then bring the final volume of the solution to 1 liter. A reaction mixture having a final volume of 500 μL was prepared with H-150 buffer, 200 μgrams of Pro-92KD gelatinase (Strongin et al., J. Biol. Chem., 268:14033 (1993); Goldberg, et al., J. Biol. Chem., 267:4583 (1992); Okada et al., J. Biol. Chem. 267:21712 (1992)), p-aminophenyl mercuric acetate (Sigma Chemical Co., St. Louis, Mo.) (1 mM) and Brij (dodexylpoly(oxyethyleneglycolether))(0,008% w/v). The reaction mixture wsa then incubated for 24 hours at 37° C.
The reaction mixture was applied to a NAP-5 column (G-25 SEPHADEX™, Pharmacia). Fractions containing 72KD gelatinase were identified using 12% polyacrylamide gel electrophoresis and concentrated to about 100-200 μliters by centrifigation (5000 g, 1 hour).
(§1) A solution containing H-150 buffer (2.0 mL), 92KD gelatinase (25 pM) and ethylphenolpoly(ethylene-glycolether)n (Boerhringer Mannheim) (4.0 μM) was prepared in a stirred cuvette. Coumarin peptide substrate (4 μL of a 5 mM solution in dimethyl sulfoxide) was added to the reaction mixture. The rate of hydrolysis was determined for about 100-200 seconds by measuring the fluorescence of the reaction at ex328 nanometers and […] using a Hitachi F-2000 Fluorescence Spectrophotometer.
(§2) 2 μL of a 10 mM inhibitor stock solution (in dimethyl sulfoxide) is added and the reduction in the rate of hydrolysis is determined. Additional 2 μL aliquots of the stock inhibitor solution is added until a 30% to 70% inhibition is observed. Ki is calculated on the assumption of simple competitive inhibition and that the substrate concentration is much less than Km.

[2] = target: human neutrophil collagenase (Homo sapiens, UniProt P22894); experiment: Assay of human neutrophil collagenase inhibition activity; type: biochemical; details: human neutrophil collagenase 2 nM, H-150 buffer pH 7.4; read-out: Ki(app)
Chain of human neutrophil collagenase (P22894 101-467): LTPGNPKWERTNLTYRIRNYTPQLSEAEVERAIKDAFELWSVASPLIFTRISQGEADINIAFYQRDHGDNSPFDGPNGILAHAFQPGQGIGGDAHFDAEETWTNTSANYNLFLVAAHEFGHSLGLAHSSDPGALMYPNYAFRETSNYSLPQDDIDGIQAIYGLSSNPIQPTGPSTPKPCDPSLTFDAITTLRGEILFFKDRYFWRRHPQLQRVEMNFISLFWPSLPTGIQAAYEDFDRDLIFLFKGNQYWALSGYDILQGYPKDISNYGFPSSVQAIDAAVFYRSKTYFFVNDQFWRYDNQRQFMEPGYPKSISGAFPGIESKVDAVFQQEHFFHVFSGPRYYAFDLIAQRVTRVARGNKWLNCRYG
Experimental: H-150 buffer, pH 7.4, was prepared by adding CaCl2 H2 O (1.47 grams), NaCl (8.77 grams) and N-[2-hydroxyethyl]piperazine-N'-[2-ethanesulfonic acid] (23.83 grams) to distilled and deionized water and then bringing the final volume of the solution to 1 liter.
A reaction mixture with a final volume of 2.0 mL was prepared from H-150 buffer, human neutrophil collagenase (Schnierer, et al., Blochem. Biophys. Res. Comm., 191:319 (1993); Knight et al., Federation of Europena Biochemical Societies 296:263 (1992)) (2 nM). Coumarin peptide substrate (4 μL of a 5 mM solution in dimethyl sulfoxide) was added to the reaction mixture. The rate of hydrolysis was determined for about 100-200 seconds by measuring the fluorescence of the reaction at ex328 nanometers and […] using a Hitachi F-2000 Fluorescence Spectrophotometer.
as §2

72 kD gelatinase = target: T1, 72 kD gelatinase (Homo sapiens, UniProt P08253); experiment: Assay of 72 KD gelatinase inhibition activity; type: biochemical; details: 72KD gelatinase 180 pM, H-150 buffer pH 7.4; read-out: Ki(app)
T1 sequence (P08253 110-660): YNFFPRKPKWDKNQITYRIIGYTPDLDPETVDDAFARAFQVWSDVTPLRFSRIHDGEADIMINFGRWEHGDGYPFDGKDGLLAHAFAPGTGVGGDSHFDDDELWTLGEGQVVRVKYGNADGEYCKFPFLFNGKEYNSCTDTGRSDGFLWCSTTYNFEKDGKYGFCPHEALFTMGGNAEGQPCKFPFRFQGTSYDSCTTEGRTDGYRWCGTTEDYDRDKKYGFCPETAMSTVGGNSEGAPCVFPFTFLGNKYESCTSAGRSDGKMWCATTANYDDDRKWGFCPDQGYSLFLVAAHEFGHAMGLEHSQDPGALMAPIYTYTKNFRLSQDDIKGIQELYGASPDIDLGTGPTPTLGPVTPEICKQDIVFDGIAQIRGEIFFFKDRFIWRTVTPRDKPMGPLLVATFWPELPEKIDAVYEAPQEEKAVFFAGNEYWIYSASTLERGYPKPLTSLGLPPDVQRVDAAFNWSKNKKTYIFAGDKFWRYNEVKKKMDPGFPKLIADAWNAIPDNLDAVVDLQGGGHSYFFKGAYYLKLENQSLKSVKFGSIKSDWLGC
Experimental: H-150 buffer, pH 7.4, was prepared by CaCl2 H2O (1.47 grams), NaCl (8.77 grams) and N-[2 -hydroxyethyl]piperazine-N'-[2-ethanesulfonic acid](23.83 grams) to distilled and deionized water and then bring the final volume of the solution to 1 liter. An reaction mixture having a final volume of 250 μL was prepared with H-150 buffer, 40 μgrams of Pro-72KD gelatinase (Strongin, et al., J. Biol. Chem. 268:14033 (1993); Goldberg, et al., J. Biol. Chem., 267:4583 (1992); Kleiner, et al., Biochemistry 32:1583 (1993)) and p-aminophenyl mercuric acetate (Sigma Chemical Co., St. Louis, Mo.) (1 mM). The reaction mixture was then incubated for 3 hours at 25° C.
The reaction mixture was applied to a NAP-5 column (G-25 SEPHADEX™, Pharmacia). Fractions containing […] were identified using 12% SDS polyacrylamide gel electrphoresis and concentrated to about 100-200 μliters by centrifigation (5000 g, 15 minutes).
as §1, with “mL), 72KD” for “mL), 92KD”, “gelatinase (180” for “gelatinase (25”, “Mannheim) (1.3” for “Mannheim) (4.0”, “substrate (2” for “substrate (4”, “a 1” for “a 5”
as §2

SMILES | Ki (stromelysin) [nM] | Ki (92 kD gelatinase) [nM] | Ki [2] [nM] | Ki (72 kD gelatinase) [nM] | % inhibition (concentration [μM]) of cartilage degradation [1] [%] | inhibition at 25 µM ([1]; Bos taurus, read-out: % inhibition (concentration [μM]) of cartilage degradation) [%]
CC(C)[C@H](NC(=O)[C@H](Cc1ccccc1)NC(=O)Cc1ccc(-c2ccccc2)cc1)C(=O)Nc1n[nH]c(=S)s1 [5-(N-(4-phenyl)phenylacetyl-phenylalanyl-valylamino)-1,3,4-thiadiazole-2-thione] | 135 |  |  |  | 37 | 
CC(C)[C@H](NC(=O)[C@H](CSCc1ccccc1)NC(=O)OCc1ccccc1)C(=O)Nc1n[nH]c(=S)s1 [5-(N-benzyloxycarbonyl-((S-benzyl)cysteinyl)-valylamino)-1,3,4-thiadiazole-2-thione] | 202 | 2.1 | 3.2 | 1.1 |  | 
O=C(N[C@H](CCc1ccccc1)C(=O)Nc1n[nH]c(=S)s1)OCc1ccccc1 [5-(N-benzyloxycarbonyl-D-homophenylalanylamino)-1,3,4-thiadiazole-2-thione] |  |  |  |  |  | 22
CSCC[C@H](NC(=O)[C@H](Cc1ccccc1)NC(=O)OCc1ccccc1)C(=O)Nc1n[nH]c(=S)s1 [5-(N-benzyloxycarbonyl-phenylalanyl-methionylamino)-1,3,4-thiadiazole-2-thione] | 1120 | 3.6 | 7.8 | 1.7 |  | 

Now from value to compound, other results behind:

Ki (stromelysin) [nM] | Ki (92 kD gelatinase) [nM] | Ki [2] [nM] | Ki (72 kD gelatinase) [nM] | SMILES | % inhibition (concentration [μM]) of cartilage degradation [1] [%] | inhibition at 25 µM ([1]; Bos taurus, read-out: % inhibition (concentration [μM]) of cartilage degradation) [%]
62 | 0.145 | 1.17 | 0.29 | CC(C)C(NC(=O)C(Cc1ccc(NC(=O)OCc2ccccc2)cc1)NC(=O)OCc1ccccc1)C(=O)Nc1n[nH]c(=S)s1 (centres unmarked) [5-(N-benzyloxycarbonyl-((p-benzyloxycarbonylamino)phenyl-alanyl)-valylamino)-1,3,4-thiadiazole-2-thione] |  | 
57 | 0.17 | 0.54 | 0.52 | O=C(CCC(NC(=O)OCc1ccccc1)C(=O)NC(C(=O)Nc1n[nH]c(=S)s1)c1ccccc1)NCCc1ccccc1 (centres unmarked) [5-(N-benzyloxycarbonyl-(γ-N-2-phenylethyl)glutamylphenylglycylamino)-1,3,4-thiadiazole-2-thione] |  | 
60 | 0.36 | 2.4 | 0.71 | CC(C)[C@H](NC(=O)[C@H](Cc1c[nH]c2ccccc12)NC(=O)[C@H](Cc1ccccc1)NC(=O)OCc1ccccc1)C(=O)Nc1n[nH]c(=S)s1 [5-(N-benzyloxycarbonyl-phenylalanyl-tryptonyl-valylamino)-1,3,4-thiadiazole-2-thione] |  | 
